Measured values reported in US8067442B2, “Heterocyclic antiviral compounds” (Roche Palo Alto LLC, priority 2008, dated 2011).

Columns and labels:
[1] = target: T1, HCV polymerase (NS5B570n-Con1) (Hepatitis C virus genotype 1b, UniProt Q9WMX2); test: biochemical; set-up: species or system HCV Con1 strain
T1 construct: a 21 amino acid C-terminal deletion of full-length HCV polymerase; made in house; host or cells: E. coli BL21(DE3) pLysS, plasmid pET17b
Experimental: The enzymatic activity of HCV polymerase (NS5B570n-Con1) was measured as the incorporation of radiolabeled nucleotide monophosphates into acid insoluble RNA products. Unincorporated radiolabeled substrate was removed by filtration and scintillant was added to the washed and dried filter plate containing radiolabeled RNA product. The amount of RNA product generated by NS5B570n-Con1 at the end of the reaction was directly proportional to the amount of light emitted by the scintillant.
The HCV polymerase used in the enzymatic activity assay is a 21 amino acid C-terminal deletion of full-length HCV polymerase derived from HCV Con1 strain, genotype 1b (GenBank accession number AJ242654) (NS5B570n-Con1). The NS5B570n-Con1 was sub-cloned downstream to the T7 promoter of the plasmid expression construct pET17b and transformed into E. coli strain BL21(DE3) pLysS for protein expression. A single colony was used to start an innoculum for a 10 L culture in LB media supplemented with 100 μg/mL ampicillin at 37° C. Protein expression was induced by the addition of 0.25 mM isopropyl-β-D-thiogalactopyranoside (IPTG) when the optical density of the culture at […] was 0.8. Induction of protein expression was carried out at 30° C. for 16 h after which the cells were harvested by centrifugation. NS5B570n-Con1 was purified to homogeneity using a three-column purification protocol including subsequent column chromatography on Ni-NTA, SP-Sepharose HP and Superdex 75 resins.
Enzymatic reactions in the presence of cIRES RNA template (see section [0300]) contained 20 nM cIRES RNA, 20 nM NS5B570n-Con1 enzyme, 0.5 μCi of tritiated UTP (Perkin Elmer catalog no. TRK-412; specific activity: 30 to 60 Ci/mmol), 1 μM each ATP, CTP, and GTP, 40 mM Tris-HCl pH 8.0, 40 mM NaCl, 4 mM DTT (dithiothreitol), 4 mM MgCl2, 5 μl of compound serial diluted in DMSO, and nuclease-free water to a final reaction volume of 50 μl. Enzymatic reactions in the presence of 20 nM cIRES template, 20 nM NS5B570n-Con1 enzyme, 1 μCi of tritiated UTP (Perkin Elmer catalog no. TRK-412; specific activity: 30 to 60 Ci/mmol), 40 mM Tris-HCl pH 8.0, 40 mM NaCl, 4 mM DTT (dithiothreitol), 4 mM MgCl2, 5 μl of compound serial diluted in DMSO, and nuclease-free water to a final reaction volume of 50 μl. Reaction mixtures were assembled in 96-well filter plates (cat #MADVNOB, Millipore Co.) and incubated for 2 h at 30° C. Reactions were stopped by addition of 10% final (v/v) trichloroacetic acid and incubated for 40 min at 4° C. Reactions were filtered, washed with 8 reaction volumes of 10% (v/v) trichloroacetic acetic acid, 4 reaction volumes of 70% (v/v) ethanol, air dried, and 25 μl of scintillant (Microscint 20, Perkin-Elmer) was added to each reaction well.
Two RNA templates can be used to assay compounds described herein. The cIRES RNA template is 377 nucleotide long and consisting of a partial complementary sequence (36 nucleotides) of the core protein, followed by 341 nucleotide of the complementary sequence of the internal ribosome entry site. The poly A RNA template (GE Amersham catalog number 27-4110) was a homopolymeric RNA pre-annealed to a oligo(rU)16 primer at a molar ratio of 3-to-1 (primer-template). The cIRES template was used in the assay unless otherwise noted.
The amount of light emitted from the scintillant was converted to counts per minute (CPM) on a Topcount® plate reader (Perkin-Elmer, Energy Range: Low, Efficiency Mode Normal, Count Time: 1 min, Background Subtract: none, Cross talk reduction: Off).
Data was analyzed in Excel® (Microsoft®) and ActivityBase® (Idbs®). The reaction in the absence of enzyme was used to determine the background signal, which was subtracted from the enzymatic reactions. […] All data was expressed as a percentage of the positive control. The compound concentration at which the enzyme-catalyzed rate of RNA synthesis was reduced by 50% (IC50) was calculated by fitting

Cc1ccc(-c2coc3c(C(C)(C)C)cc(-c4ccc[nH]c4=O)cc23)nc1 [Compound I-91, 3-[7-tert-Butyl-3-(5-methyl-pyridin-2-yl)-benzofuran-5-yl]-1H-pyridin-2-one]
IC50 [1]: 326 nM | melting point: 295 to 297 °C

CCS(=O)(=O)NC[C@H]1CCN(C(=O)c2coc3c(C(C)(C)C)cc(-c4ccc[nH]c4=O)cc23)C1 [Compound I-106]
IC50 [1]: 17 nM | melting point: 240 to 242 °C

CC(C)(C)c1cc(-c2ccc[nH]c2=O)cc2c(C(=O)Nc3cccc(NS(C)(=O)=O)c3)coc12 [Compound I-83]
IC50 [1]: 201 nM | melting point: 290 to 291 °C

CC(C)(C)c1cc(-c2ccc[nH]c2=O)cc2c(-c3ccc(CNS(C)(=O)=O)cc3)coc12 [Compound I-37, N-{4-[7-tert-Butyl-5-(2-oxo-1,2-dihydro-pyridin-3-yl)-benzofuran-3-yl]-benzyl}1-methanesulfonamide]
IC50 [1]: 4 nM | melting point: 271 to 273 °C

CC(C)(C)c1cc(-c2ccc[nH]c2=O)cc2c(C(=O)c3cccc(O)c3)coc12 [Compound I-36, 3-[7-tert-Butyl-3-(3-hydroxy-benzoyl)-benzofuran-5-yl]-1H-pyridin-2-one]
IC50 [1]: 38 nM | melting point: 268 to 269 °C

CN(CC1CCCN(C(=O)c2coc3c(C(C)(C)C)cc(-c4ccc[nH]c4=O)cc23)C1)S(C)(=O)=O (centres unmarked) [Compound I-104]
IC50 [1]: 20 nM | melting point: 155 to 157 °C

CC(C)(C)c1cc(-c2ccc[nH]c2=O)cc2c(CC(=O)O)coc12 [Compound I-6, [7-tert-Butyl-5-(2-oxo-1,2-dihydro-pyridin-3-yl)-benzofuran-3-yl]-acetic acid]
IC50 [1]: 358 nM | melting point: 233 to 234 °C

CC(C)(C)c1cc(-c2ccc[nH]c2=O)cc2c(C(=O)N3CCC[C@@H]3CNS(C)(=O)=O)csc12 [Compound 116, N-{(R)-1-[7-tert-Butyl-5-(2-oxo-1,2-dihydro-pyridin-3-yl)-benzo[b]thiophene-3-carbonyl]-pyrrolidin-2-ylmethyl}-methanesulfonamide]
IC50 [1]: 4 nM | melting point: 289 to 291 °C

CC(C)(C)c1cc(-c2ccc[nH]c2=O)cc2c(C(=O)Nc3nccs3)coc12 [Compound I-84]
IC50 [1]: 357 nM | melting point: > 300 °C

CC(C)(C)c1cc(-c2ncc[nH]c2=O)cc2c(C(=O)N3CCCC(CNS(C)(=O)=O)C3)coc12 (centres unmarked) [Compound 102, N-{1-[7-tert-Butyl-5-(3-oxo-3,4-dihydro-pyrazin-2-yl)-benzofuran-3-carbonyl]-piperidin-3-ylmethyl}-methanesulfonamide]
IC50 [1]: 8 nM | melting point: 172 to 174 °C

CC(C)(C)c1cc(-c2ccc[nH]c2=O)cc2c(C(=O)N3CCC(CN)C3)coc12 (centres unmarked) [Compound I-49]
IC50 [1]: 104 nM | melting point: > 300 °C

CC(C)(C)c1cc(-c2ccc[nH]c2=O)cc2c(C(=O)c3ccccc3)coc12 [Compound I-20]
IC50 [1]: 49 nM | melting point: 271 to 272 °C

CN(Cc1ccc(-c2coc3c(C(C)(C)C)cc(-c4ccc[nH]c4=O)cc23)cc1)S(C)(=O)=O [Compound I-77]
IC50 [1]: 36 nM | melting point: 243 to 245 °C

CC(C)(C)c1cc(-c2ccc[nH]c2=O)cc2c(C(=O)N3CC(O)C3)coc12 [Compound I-102]
IC50 [1]: 135 nM | melting point: 264 to 266 °C

CC(=O)Nc1ccc(-c2coc3c(C(C)(C)C)cc(-c4ccc[nH]c4=O)cc23)cc1 [Compound I-80]
IC50 [1]: 64 nM | melting point: > 300 °C

CC(C)(C)c1cc(-c2ccc[nH]c2=O)cc2c(-c3ccccc3)coc12 [Compound I-24]
IC50 [1]: 19 nM | melting point: 257 to 258 °C

CC(C)(C)c1cc(-c2ccc[nH]c2=O)cc2c(C(=O)N3CC(CO)C3)coc12 [Compound I-95]
IC50 [1]: 43 nM | melting point: 292 to 293 °C

CC(C)(C)c1cc(-c2ccc[nH]c2=O)cc2c(-c3cccc(NS(C)(=O)=O)c3)coc12 [Compound I-82, N-{3-[7-tert-Butyl-5-(2-oxo-1,2-dihydro-pyridin-3-yl)-benzofuran-3-yl]-phenyl}-methanesulfonamide]
IC50 [1]: 113 nM | melting point: 227 to 230 °C

CC(C)(C)c1cc(-c2ccc[nH]c2=O)cc2c(C(=O)N3CCC[C@H](N)C3)coc12 [Compound I-41]
IC50 [1]: 126 nM | melting point: 269 to 270 °C

CC(C)(C)c1cc(-c2ccc[nH]c2=O)cc2c(-c3ccc(NS(C)(=O)=O)cc3)coc12 [Compound I-79, N-{4-[7-tert-Butyl-5-(2-oxo-1,2-dihydro-pyridin-3-yl)-benzofuran-3-yl]-phenyl}-methanesulfonamide]
IC50 [1]: 27 nM | melting point: 182 to 184 °C

Cn1cc(C(=O)N2CC[C@H](CNS(C)(=O)=O)C2)c2cc(-c3ccc[nH]c3=O)cc(C(C)(C)C)c21 [Compound I-111, N-{(S)-1-[7-tert-Butyl-1-methyl-5-(2-oxo-1,2-dihydro-pyridin-3-yl)-1H-indole-3-carbonyl]-pyrrolidin-3-ylmethyl}-methanesulfonamide]
IC50 [1]: 8 nM | melting point: 168 to 170 °C

COc1cccc(-c2coc3c(C(C)(C)C)cc(-c4ccc[nH]c4=O)cc23)c1 [Compound I-33]
IC50 [1]: 14 nM | melting point: 204 to 205 °C

CC(C)(C)c1cc(-c2ccc[nH]c2=O)cc2c(-c3ccc(C(N)=O)cc3)coc12 [Compound I-87]
IC50 [1]: 2 nM | melting point: 282 to 284 °C

CC(C)(C)c1cc(-c2ccc[nH]c2=O)cc2ccoc12 [Compound I-2, 3-(7-tert-Butyl-benzofuran-5-yl)-1H-pyridin-2-one]
IC50 [1]: 202 nM | melting point: 217 to 218 °C

CC(C)(C)c1cc(-c2ccc[nH]c2=O)cc2c(C(=O)Nc3cccc(CNS(C)(=O)=O)c3)coc12 [Compound I-85]
IC50 [1]: 741 nM | melting point: 237 to 239 °C

CC(C)(C)c1cc(-c2ccc[nH]c2=O)cc2c(C(=O)N3CCC(NS(C)(=O)=O)CC3)coc12 [Compound I-99]
IC50 [1]: 876 nM | melting point: 193 to 195 °C

CC(C)(C)c1cc(-c2ccc[nH]c2=O)cc2c(CC#N)coc12 [Compound I-5, [7-tert-Butyl-5-(2-oxo-1,2-dihydro-pyridin-3-yl)-benzofuran-3-yl]-acetonitrile]
IC50 [1]: 330 nM | melting point: 231 to 232 °C

Cc1ccc(-c2cc(C(C)(C)C)c3occ(C(=O)N4CC[C@H](CNS(C)(=O)=O)C4)c3c2)c(=O)[nH]1 [Compound I-98]
IC50 [1]: 16 nM | melting point: 178 to 180 °C

CC(C)(C)c1cc(-c2ccc[nH]c2=O)cc2c(C(=O)N3CC[C@H](CNS(C)(=O)=O)C3)coc12 [Compound I-72]
IC50 [1]: 8 nM | melting point: 258 to 260 °C

COCc1cc(CNS(C)(=O)=O)ccc1-c1coc2c(C(C)(C)C)cc(-c3ccc[nH]c3=O)cc12 [Compound I-97, N-{4-[7-tert-Butyl-5-(2-oxo-1,2-dihydro-pyridin-3-yl)-benzofuran-3-yl]-3-methoxymethyl-benzyl}-methanesulfonamide]
IC50 [1]: 515 nM | melting point: 128 to 130 °C

CC(C)(C)c1cc(-c2ccc[nH]c2=O)cc2c(-c3cccc(CNS(C)(=O)=O)c3)coc12 [Compound I-81]
IC50 [1]: 175 nM | melting point: 130 to 133 °C
